Laboratory results taken from US8765730B2 (Hoffmann-La Roche Inc, priority 2010, dated 2014).
pEC50: −log10 of the molar value.

Target: T1, human GPBAR1 receptor (Homo sapiens, UniProt Q8TDU6)
T1 construct: expressed in transfected cells
T1 sequence (Q8TDU6 1-330): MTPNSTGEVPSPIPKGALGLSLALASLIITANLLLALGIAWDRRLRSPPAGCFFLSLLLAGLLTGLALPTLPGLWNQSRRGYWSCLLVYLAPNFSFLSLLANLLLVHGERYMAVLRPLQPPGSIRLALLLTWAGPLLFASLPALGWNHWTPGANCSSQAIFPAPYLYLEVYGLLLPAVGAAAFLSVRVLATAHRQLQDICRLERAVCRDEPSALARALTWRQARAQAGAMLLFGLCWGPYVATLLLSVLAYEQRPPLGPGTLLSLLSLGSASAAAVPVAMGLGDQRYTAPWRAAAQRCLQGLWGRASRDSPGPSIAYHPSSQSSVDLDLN
Assay: functional cAMP assay in CHO-dhfr(minus) cells expressing human GPBAR1 receptors
Assay type: cell-based
Details: functional cAMP assay, 30 min at 30° C., read-out: human EC50
How it was run: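 Agonist cAMP read-out: stable GPBAR1 CHO-dhfr− clone, 30 min compound exposure at 30° C following 30 min IBMX (1 mM) preincubation in Krebs Ringer bicarbonate. Time-resolved energy-transfer detection gives EC50; parental CHO cells serve as counter-screen.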

pEC50	Compound
7.72	O/N=C(\CC(c1ccccc1)c1ccc(Br)cc1)c1ccncc1 (stereo not shown) [Example 5, (E)-3-(4-Bromo-phenyl)-3-phenyl-1-pyridin-4-yl-propan-1-one oxime]

Same assay, conditions: human EC50, functional cAMP assay, 30 min at 30° C.

Compound	pEC50
Cc1cc(/C(C[C@H](c2ccc(C3=CCNCC3)cc2)c2ccccc2C)=N/O)ccn1 [Example 375, (R,E)-1-(2-Methylpyridin-4-yl)-3-(4-(1,2,3,6-tetrahydropyridin-4-yl)phenyl)-3-o-tolylpropan-1-one oxime]	7.12
Cn1cc(/C(CC(c2ccc(Br)cc2)C2CCCC2)=N/O)ccc1=O (stereo not shown) [Example 172, 5-{3-(4-Bromo-phenyl)-3-cyclopentyl-1-[(E)-hydroxyimino]-propyl}-1-methyl-1H-pyridin-2-one]	7.25
Cn1cc(/C(CC(c2ccc(Br)cc2F)C2CCCC2)=N/O)ccc1=O (stereo not shown) [Example 192, 5-{3-(4-Bromo-2-fluoro-phenyl)-3-cyclopentyl-1-[(E)-hydroxyimino]-propyl}-1-methyl-1H-pyridin-2-one]	6.97
Cn1cc(C(CC(c2ccc(C(=O)NCCO)c(F)c2)c2ccccc2Cl)=NO)ccc1=O (mixture of isomers) [Example 216, (E/Z)-4-(1-(2-Chlorophenyl)-3-(hydroxyimino)-3-(1-methyl-6-oxo-1,6-dihydropyridin-3-yl)propyl)-2-fluoro-N-(2-hydroxyethyl)benzamide]	6.59
Cc1ccccc1C(CC(=NO)c1ccncc1)c1cccc(Br)c1 (racemic) [Example 11, 3-(3-Bromo-phenyl)-1-pyridin-4-yl-3-o-tolyl-propan-1-one oxime]	7.40
COC(=O)c1ccc(-c2ccc(C(CC(=NO)c3ccnc(C)c3)c3ccccc3C)cc2)cc1Cl (racemic) [Example 83, 3-Chloro-4′-[3-[hydroxyimino]-3-(2-methyl-pyridin-4-yl)-1-o-tolyl-propyl]-biphenyl-4-carboxylic acid methyl ester]	6.34
Cc1ccccc1C(Cc1ccc(Br)cc1)/C(=N/O)c1ccncc1 (stereo not shown) [Example 43, (Z)-3-(4-Bromo-phenyl)-1-pyridin-4-yl-2-o-tolyl-propan-1-one oxime]	6.07
CN(C)c1ccc(C(CC(=NO)c2ccncc2)c2c[nH]c3ccccc23)cc1 (racemic) [Example 62, 3-(4-Dimethylamino-phenyl)-3-(1H-indol-3-yl)-1-pyridin-4-yl-propan-1-one oxime]	5.57
Cc1ccccc1C(C/C(=N\O)c1ccc(=O)n(C)c1)c1ccc(C(=O)NCCC(=O)O)cc1 (stereo not shown) [Example 214, 3-{4-[3-[(E)-Hydroxyimino]-3-(1-methyl-6-oxo-1,6-dihydro-pyridin-3-yl)-1-o-tolyl-propyl]-benzoylamino}-propionic acid]	5.91
Cc1ccccc1C(CC(=NO)c1ccncc1)c1cccc(-c2ccc(S(C)(=O)=O)cc2)c1 (racemic) [Example 29, 3-(4′-Methanesulfonyl-biphenyl-3-yl)-1-pyridin-4-yl-3-o-tolyl-propan-1-one oxime]	6.40
Cc1cccnc1C(C/C(=N\O)c1ccncc1)c1ccc(N(C)C)cc1 (stereo not shown) [Example 65, (E)-3-(4-Dimethylamino-phenyl)-3-(3-methyl-pyridin-2-yl)-1-pyridin-4-yl-propan-1-one oxime]	7.41
Cc1cc(C(CC(c2ccc(CCCCC(=O)O)cc2)c2ccccc2C)=NO)ccn1 (racemic) [Example 115, 5-{4-[3-[Hydroxyimino]-3-(2-methyl-pyridin-4-yl)-1-o-tolyl-propyl]-phenyl}-pentanoic acid]	7.39
Cn1cc(/C(CC(c2ccccc2)c2ccccc2)=N/O)ccc1=O [Example 161, 5-{1-[(E)-Hydroxyimino]-3,3-diphenyl-propyl}-1-methyl-1H-pyridin-2-one]	6.92
Cc1cc(/C(CC(c2cccc(Br)c2)c2ccccc2C)=N/O)cc(F)n1 (stereo not shown) [Example 122, (E)-3-(3-Bromo-phenyl)-1-(2-fluoro-6-methyl-pyridin-4-yl)-3-o-tolyl-propan-1-one oxime]	6.70

Other lines, results leading:

pEC50	Compound
8.40	Cc1cc(/C(C[C@H](c2ccc(N3CCC(C(=O)O)CC3)cc2)c2ccc(F)cc2F)=N/O)ccn1 (single isomer, unassigned) [Example 427, 1-{4-[(−)-1-(2,4-Difluoro-phenyl)-3-[(E)-hydroxyimino]-3-(2-methyl-pyridin-4-yl)-propyl]-phenyl}-piperidine-4-carboxylic acid]
7.74	Cc1cc(Cl)ccc1[C@@H](C/C(=N\O)c1ccc(=O)n(C)c1)c1ccc(-c2ccc(NS(C)(=O)=O)cc2)cc1 (single isomer, unassigned) [Example 416, (+)-N-{4′-[1-(4-Chloro-2-methyl-phenyl)-3-[(E)-hydroxyimino]-3-(1-methyl-6-oxo-1,6-dihydro-pyridin-3-yl)-propyl]-biphenyl-4-yl}-methanesulfonamide]
6.46	Cc1cc(C(=O)O)ccc1-c1ccc([C@@H](C/C(=N\O)c2ccc(=O)n(C)c2)c2ccc(Cl)cc2F)cc1 (single isomer, unassigned) [Example 465, 4′-[(−)-1-(4-Chloro-2-fluoro-phenyl)-3-[(E)-hydroxyimino]-3-(1-methyl-6-oxo-1,6-dihydro-pyridin-3-yl)-propyl]-2-methyl-biphenyl-4-carboxylic acid]
7.18	Cc1cc(/C(CC(c2ccc(C(=O)NC(C)(C)CO)cc2)c2ccc(F)cc2F)=N/O)ccn1 (stereo not shown) [Example 435, 4-[1-(2,4-Difluoro-phenyl)-3-[(E)-hydroxyimino]-3-(2-methyl-pyridin-4-yl)-propyl]-N-(2-hydroxy-1,1-dimethyl-ethyl)-benzamide]
7.26	Cc1cc(/C(C[C@H](c2ccc(N[C@H]3C[C@@H](C(=O)O)C3)cc2)c2ccccc2C)=N/O)ccn1 [Example 300, 3-{4-[(R)-3-[(E)-Hydroxyimino]-3-(2-methyl-pyridin-4-yl)-1-o-tolyl-propyl]-phenylamino}-cyclobutanecarboxylic acid]
7.42	Cc1cc(Cl)ccc1C(C/C(=N\O)c1ccc(=O)n(C)c1)c1ccc(Br)cc1 (stereo not shown) [Example 226, 5-{3-(4-Bromo-phenyl)-3-(4-chloro-2-methyl-phenyl)-1-[(E)-hydroxyimino]-propyl}-1-methyl-1H-pyridin-2-one]
6.86	Cn1cc(/C(CC(c2ccc(-c3ccc(C(=O)O)cc3)cc2)c2ccc(F)cc2F)=N/O)ccc1=O (stereo not shown) [Example 403, 4′-[1-(2,4-Difluoro-phenyl)-3-[(E)-hydroxyimino]-3-(1-methyl-6-oxo-1,6-dihydro-pyridin-3-yl)-propyl]-biphenyl-4-carboxylic acid]
7.82	CNC(=O)c1ccc([C@@H](C/C(=N\O)c2ccnc(C)c2)c2ccccc2C)cc1 [Example 278, 4-[(R)-3-[(E)-Hydroxyimino]-3-(2-methyl-pyridin-4-yl)-1-o-tolyl-propyl]-N-methyl-benzamide]
7.66	Cc1cc(Cl)ccc1C(C/C(=N\O)c1ccc(=O)n(C)c1)c1ccc(-c2ccc(C(=O)NCC(=O)O)cc2)cc1 (stereo not shown) [Example 229, (E)-2-(4′-(1-(4-chloro-2-methylphenyl)-3-(hydroxyimino)-3-(1-methyl-6-oxo-1,6-dihydropyridin-3-yl)propyl)biphenyl-4-ylcarboxamido)acetic acid]
7.15	Cc1ccccc1C(C/C(=N\O)c1ccc(=O)n(C)c1)c1ccc(C(=O)NC[C@@H](C)O)cc1 (stereo partly drawn) [Example 248, 4-((E)-3-(Hydroxyimino)-3-(1-methyl-6-oxo-1,6-dihydropyridin-3-yl)-1-o-tolylpropyl)-N-((R)-2-hydroxypropyl)benzamide]
